Source: publication PMC3119659, “Ligand Activation of the Prokaryotic Pentameric Ligand-Gated Ion Channel ELIC” (PLoS Biology, 2011)
Entries after “also recorded” stand apart in the source; their conditions may differ. Where two headings read alike, the source gives them in different places.

Assays:
[1] = target: T1, ELIC (Dickeya chrysanthemi, UniProt P0C7B7); experiment: cell-based; type: cell-based, Erwinia chrysanthemi
T1 construct: expressed in transfected cells; host or cells: Xenopus laevis oocytes (cRNA injection, pTLN vector)
From the text: To identify ligands that activate ELIC we have expressed the protein in Xenopus laevis oocytes and investigated the response to potential agonists by the two-electrode voltage-clamp technique. Based on the volume and chemical properties of the proposed ligand binding region and the presence of positively charged ions bound to this site, we reasoned that parts of the agonists might have a cationic character. […] Our library included different natural products such as amino acids and their derivatives, metabolites, and related synthetic substances (Figure S3A).
Constructs containing the gene of either the WT channel or point mutants preceded by the signal sequence of the chicken α7nAchR were cloned into the pTLN vector for expression in X. laevis oocytes. After linearization of the plasmid DNA by MluI, capped complementary RNA was transcribed with the mMessage mMachine kit (Ambion) and purified with the RNeasy kit (Qiagen). For expression, 1–50 ng of RNA was injected into defolliculated oocytes. Two-electrode voltage clamp measurements were performed one day after injection at 20°C (OC-725B, Warner Instrument Corp.). […] Cysteamine containing solutions were supplemented with 1 mM DTT.

[2] = Protonation of the sulfhydryl group of cysteamine; type: physicochemical; conditions: at the pH of the recording solution
[3] = target: T2, ELIC F19A (Dickeya chrysanthemi, UniProt P0C7B7, F19A); experiment: Two-electrode voltage clamp of ELIC point mutant F19A in oocytes; type: cell-based, Erwinia chrysanthemi; conditions: read-out: EC50 of activation
T2 construct: expressed in transfected cells; host or cells: Xenopus laevis oocytes (cRNA injection, pTLN vector)
From the text: (§1) To investigate the role of residues surrounding the bound ligand for channel activation, we have mutated single residues to alanine and we have measured activation with the two-electrode voltage-clamp technique (Table 2). For many mutants there was no response to the addition of cysteamine. This was the case for all investigated residues of the principal site, such as Glu77 and Glu131, that may interact with the primary amino group and hydrophobic and aromatic residues (i.e., Phe187, Phe133, Tyr174, Ile79) that surround the aliphatic carbon atoms of the ligand. The effect of mutations on the complementary side, in contrast, was diverse and in some cases less drastic. The mutations of Phe19 on β-1 and Val40 on β-2 shifted the activation towards higher agonist concentrations (Figure 4B).
(§2) Constructs containing the gene of either the WT channel or point mutants preceded by the signal sequence of the chicken α7nAchR were cloned into the pTLN vector for expression in X. laevis oocytes. After linearization of the plasmid DNA by MluI, capped complementary RNA was transcribed with the mMessage mMachine kit (Ambion) and purified with the RNeasy kit (Qiagen). For expression, 1–50 ng of RNA was injected into defolliculated oocytes. […] Currents were recorded in bath solutions containing 10 mM HEPES (pH 7), 130 mM NaCl, and the respective ligands. […]

[4] = target: T3, ELIC Tyr174 mutated to alanine (Dickeya chrysanthemi, UniProt P0C7B7, Y174A); experiment: Two-electrode voltage clamp of ELIC Tyr174 alanine mutant; type: cell-based, Erwinia chrysanthemi
T3 construct: expressed in transfected cells; host or cells: Xenopus laevis oocytes (cRNA injection, pTLN vector)
From the text: as §1, §2

[5] = target: T4, ELIC Glu131 mutated to alanine (Dickeya chrysanthemi, UniProt P0C7B7, E131A); experiment: Two-electrode voltage clamp of ELIC Glu131 alanine mutant; type: cell-based, Erwinia chrysanthemi
T4 construct: expressed in transfected cells; host or cells: Xenopus laevis oocytes (cRNA injection, pTLN vector)
From the text: as §1, §2

[6] = target: T5, ELIC Phe133 mutated to alanine (Dickeya chrysanthemi, UniProt P0C7B7, F133A); experiment: Two-electrode voltage clamp of ELIC Phe133 alanine mutant; type: cell-based, Erwinia chrysanthemi
T5 construct: expressed in transfected cells; host or cells: Xenopus laevis oocytes (cRNA injection, pTLN vector)
From the text: as §1, §2

[7] = target: T6, ELIC Phe187 mutated to alanine (Dickeya chrysanthemi, UniProt P0C7B7, F187A); experiment: Two-electrode voltage clamp of ELIC Phe187 alanine mutant; type: cell-based, Erwinia chrysanthemi
T6 construct: expressed in transfected cells; host or cells: Xenopus laevis oocytes (cRNA injection, pTLN vector)
From the text: as §1, §2

[8] = target: T7, ELIC F246A (Dickeya chrysanthemi, UniProt P0C7B7, F246A); experiment: Two-electrode voltage clamp of ELIC pore mutant F246A in oocytes; type: cell-based, Erwinia chrysanthemi
T7 construct: expressed in transfected cells; host or cells: Xenopus laevis oocytes (cRNA injection, pTLN vector)
From the text: In contrast to the extracellular domain, the pore of ELIC resembles cation selective members of the family that include nAChRs, serotonin receptors, and the prokaryotic channel GLIC (Figure S1G). In cation selective pLGICs, three layers of hydrophobic side-chains provide an overall apolar character to the extracellular half of the pore region while the following two layers of polar residues and a layer of negatively charged residues render the intracellular half hydrophilic,[30]. […] To investigate the role of this aromatic group for channel opening, we have mutated it to alanine and studied the mutant by X-ray crystallography and electrophysiology. […] This shift is due to a mutation of a residue located remote from the ligand binding site and thus likely reflects a decreased efficacy of the channel.
as §2

[9] = target: T1, ELIC; experiment: Patch clamp of excised outside-out patches, fast solution exchange (activation and deactivation kinetics); type: cell-based, Erwinia chrysanthemi; conditions: -60 mV, n = 19, errors s.d., upper limit
Protocol: We have thus used this molecule as an agonist in most subsequent experiments. […] Stable currents over a period of seconds were obtained upon addition of high micromolar concentrations of cysteamine to the extracellular medium (Figure 3A). At longer incubations with the ligand, however, the currents decayed, which is indicative for a slow desensitization of the channel (Figure S4A). […] To follow the time-course of activation and deactivation, we have investigated excised outside-out patches in response to fast solution exchange. A similar phenotype of currents as previously seen in two-electrode voltage clamp recordings, although with faster kinetics of desensitization, was also observed for macroscopic currents in a patch clamp experiment (Figure 3B, Figure S4B). At 5 mM cysteamine, channel activation and deactivation can be approximated by exponential functions with time constants in the ms range (τact = 20±5 ms, n = 19, τdeact = 53±7 ms, n = 19, all errors are s.d.). […]
Membrane patches of X. laevis oocytes were recorded in the excised outside-out configuration 2–3 d after injection of mRNA with an Axopatch 200B amplifier (Axon Instruments) at 20°C. Data were sampled at 100 µs, filtered with 1,000 Hz, and analyzed using Clampfit (Axon Instruments, Inc.). […]

[10] = target: T8, ELIC Glu77 mutated to alanine (Dickeya chrysanthemi, UniProt P0C7B7, E77A); experiment: Two-electrode voltage clamp of ELIC Glu77 alanine mutant; type: cell-based, Erwinia chrysanthemi
T8 construct: expressed in transfected cells; host or cells: Xenopus laevis oocytes (cRNA injection, pTLN vector)
From the text: as §1, §2

[11] = target: T9, ELIC R91A (Dickeya chrysanthemi, UniProt P0C7B7, R91A); experiment: Two-electrode voltage clamp of ELIC point mutant R91A in oocytes; type: cell-based, Erwinia chrysanthemi; conditions: for n (Hill coefficient) / EC50: mutant R91A; for fold decrease of the EC50: mutant R91A compared with WT; for EC50: read-out: EC50 of activation
T9 construct: expressed in transfected cells; host or cells: Xenopus laevis oocytes (cRNA injection, pTLN vector)
From the text: as §1
(§3) Constructs containing the gene of either the WT channel or point mutants preceded by the signal sequence of the chicken α7nAchR were cloned into the pTLN vector for expression in X. laevis oocytes. After linearization of the plasmid DNA by MluI, capped complementary RNA was transcribed with the mMessage mMachine kit (Ambion) and purified with the RNeasy kit (Qiagen). For expression, 1–50 ng of RNA was injected into defolliculated oocytes. Two-electrode voltage clamp measurements were performed one day after injection at 20°C (OC-725B, Warner Instrument Corp.). Currents were recorded in bath solutions containing 10 mM HEPES (pH 7), 130 mM NaCl, and the respective ligands. Cysteamine containing solutions were supplemented with 1 mM DTT.

[12] = target: T10, ELIC V40A (Dickeya chrysanthemi, UniProt P0C7B7, V40A); experiment: Two-electrode voltage clamp of ELIC point mutant V40A in oocytes; type: cell-based, Erwinia chrysanthemi; conditions: for EC50: read-out: EC50 of activation
T10 construct: expressed in transfected cells; host or cells: Xenopus laevis oocytes (cRNA injection, pTLN vector)
From the text: as §1, §3

[13] = target: T11, ELIC Ile79 mutated to alanine (Dickeya chrysanthemi, UniProt P0C7B7, I79A); experiment: Two-electrode voltage clamp of ELIC Ile79 alanine mutant; type: cell-based, Erwinia chrysanthemi
T11 construct: expressed in transfected cells; host or cells: Xenopus laevis oocytes (cRNA injection, pTLN vector)
From the text: as §1, §2

[14] = target: T12, ELIC Asn103 mutated to alanine (Dickeya chrysanthemi, UniProt P0C7B7, N103A); experiment: Two-electrode voltage clamp of ELIC Asn103 alanine mutant; type: cell-based, Erwinia chrysanthemi
T12 construct: expressed in transfected cells; host or cells: Xenopus laevis oocytes (cRNA injection, pTLN vector)
From the text: as §1, §2

[15] = WT, pH 7.0, two-electrode voltage clamp, -60 mV, fit to Hill equation, read-out: EC50 of activation of ELIC
[16] = ligand added to the extracellular solution, 10 mM, -60 mV, compared with 2 mM cysteamine
[17] = pH 7.0, averages and s.d. of six measurements
[18] = WT, pH 8.0, two-electrode voltage clamp, -60 mV, read-out: EC50 of activation of ELIC
[19] = pH 9.0, averages and s.d. of six measurements

T1 sequence (P0C7B7 whole entry): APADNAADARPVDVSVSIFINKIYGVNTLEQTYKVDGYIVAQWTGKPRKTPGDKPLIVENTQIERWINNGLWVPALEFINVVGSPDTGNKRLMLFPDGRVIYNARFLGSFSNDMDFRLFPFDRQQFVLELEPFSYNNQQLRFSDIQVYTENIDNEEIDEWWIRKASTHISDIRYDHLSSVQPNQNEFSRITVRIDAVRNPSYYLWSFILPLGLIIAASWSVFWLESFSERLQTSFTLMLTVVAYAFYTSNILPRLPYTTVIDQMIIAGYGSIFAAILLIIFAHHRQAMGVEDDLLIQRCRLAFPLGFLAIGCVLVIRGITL
T10 sequence (P0C7B7 whole entry V40A): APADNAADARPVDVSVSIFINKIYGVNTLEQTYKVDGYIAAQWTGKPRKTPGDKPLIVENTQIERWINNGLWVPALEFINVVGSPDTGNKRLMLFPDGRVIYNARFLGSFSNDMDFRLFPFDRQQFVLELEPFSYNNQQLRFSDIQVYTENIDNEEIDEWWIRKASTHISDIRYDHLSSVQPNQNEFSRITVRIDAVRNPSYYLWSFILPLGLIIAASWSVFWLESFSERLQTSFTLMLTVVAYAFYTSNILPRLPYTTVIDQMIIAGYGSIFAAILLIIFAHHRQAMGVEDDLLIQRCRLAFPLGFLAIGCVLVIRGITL
T9 sequence (P0C7B7 whole entry R91A): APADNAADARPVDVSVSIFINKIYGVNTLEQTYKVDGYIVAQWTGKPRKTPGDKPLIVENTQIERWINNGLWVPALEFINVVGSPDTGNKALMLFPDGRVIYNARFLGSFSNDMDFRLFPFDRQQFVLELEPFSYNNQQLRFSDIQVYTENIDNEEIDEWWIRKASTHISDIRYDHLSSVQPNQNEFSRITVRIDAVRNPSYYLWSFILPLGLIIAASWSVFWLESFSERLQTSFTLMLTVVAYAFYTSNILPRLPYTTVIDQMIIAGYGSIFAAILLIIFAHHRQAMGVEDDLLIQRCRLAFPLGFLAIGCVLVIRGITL
T7 sequence (P0C7B7 whole entry F246A): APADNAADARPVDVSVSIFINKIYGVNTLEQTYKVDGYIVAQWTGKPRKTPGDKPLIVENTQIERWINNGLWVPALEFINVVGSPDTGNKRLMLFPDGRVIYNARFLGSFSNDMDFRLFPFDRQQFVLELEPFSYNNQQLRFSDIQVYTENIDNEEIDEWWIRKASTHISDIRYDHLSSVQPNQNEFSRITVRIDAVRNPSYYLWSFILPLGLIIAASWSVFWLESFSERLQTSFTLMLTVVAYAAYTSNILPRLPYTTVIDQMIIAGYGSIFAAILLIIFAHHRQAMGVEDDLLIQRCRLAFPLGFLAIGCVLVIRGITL
T12 sequence (P0C7B7 whole entry N103A): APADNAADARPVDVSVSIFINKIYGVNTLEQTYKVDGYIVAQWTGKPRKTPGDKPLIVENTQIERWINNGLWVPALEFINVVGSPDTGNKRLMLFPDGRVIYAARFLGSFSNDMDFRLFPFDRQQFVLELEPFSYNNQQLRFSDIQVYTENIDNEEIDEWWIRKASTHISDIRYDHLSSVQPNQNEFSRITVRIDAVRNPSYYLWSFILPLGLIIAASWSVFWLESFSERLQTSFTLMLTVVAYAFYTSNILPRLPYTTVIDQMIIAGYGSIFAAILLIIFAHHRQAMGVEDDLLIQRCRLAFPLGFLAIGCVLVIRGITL
T6 sequence (P0C7B7 whole entry F187A): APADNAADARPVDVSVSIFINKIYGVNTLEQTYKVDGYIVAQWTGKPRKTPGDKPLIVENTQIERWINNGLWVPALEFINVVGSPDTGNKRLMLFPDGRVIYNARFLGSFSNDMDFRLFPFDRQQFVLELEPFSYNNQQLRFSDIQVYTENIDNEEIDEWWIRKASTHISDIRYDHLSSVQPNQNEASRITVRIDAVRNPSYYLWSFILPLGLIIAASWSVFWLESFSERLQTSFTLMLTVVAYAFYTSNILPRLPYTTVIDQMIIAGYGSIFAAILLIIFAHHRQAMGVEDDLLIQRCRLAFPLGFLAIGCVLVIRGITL
T2 sequence (P0C7B7 whole entry F19A): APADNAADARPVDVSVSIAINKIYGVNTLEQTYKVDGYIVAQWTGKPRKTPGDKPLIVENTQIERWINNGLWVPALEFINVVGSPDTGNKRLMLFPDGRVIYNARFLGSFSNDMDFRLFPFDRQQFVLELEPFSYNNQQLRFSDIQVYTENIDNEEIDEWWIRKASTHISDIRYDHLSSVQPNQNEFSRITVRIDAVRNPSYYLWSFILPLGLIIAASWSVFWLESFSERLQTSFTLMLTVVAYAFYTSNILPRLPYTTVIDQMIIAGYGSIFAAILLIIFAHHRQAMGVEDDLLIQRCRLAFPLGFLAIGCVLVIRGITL
T11 sequence (P0C7B7 whole entry I79A): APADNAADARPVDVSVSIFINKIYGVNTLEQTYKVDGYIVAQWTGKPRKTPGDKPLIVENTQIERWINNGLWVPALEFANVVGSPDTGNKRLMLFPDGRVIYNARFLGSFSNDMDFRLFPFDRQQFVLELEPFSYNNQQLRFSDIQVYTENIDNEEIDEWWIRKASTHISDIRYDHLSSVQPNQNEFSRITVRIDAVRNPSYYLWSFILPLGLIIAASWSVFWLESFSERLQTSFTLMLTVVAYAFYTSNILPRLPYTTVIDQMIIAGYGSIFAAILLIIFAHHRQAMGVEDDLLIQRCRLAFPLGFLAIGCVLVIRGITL
T5 sequence (P0C7B7 whole entry F133A): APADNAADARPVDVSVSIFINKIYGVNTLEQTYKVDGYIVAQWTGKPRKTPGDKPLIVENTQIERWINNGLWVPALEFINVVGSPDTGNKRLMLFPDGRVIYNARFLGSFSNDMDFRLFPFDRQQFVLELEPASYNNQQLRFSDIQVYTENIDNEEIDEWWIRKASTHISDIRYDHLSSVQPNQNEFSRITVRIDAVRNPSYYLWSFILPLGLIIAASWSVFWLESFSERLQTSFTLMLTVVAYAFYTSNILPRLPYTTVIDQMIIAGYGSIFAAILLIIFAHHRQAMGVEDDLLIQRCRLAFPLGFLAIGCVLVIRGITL
T3 sequence (P0C7B7 whole entry Y174A): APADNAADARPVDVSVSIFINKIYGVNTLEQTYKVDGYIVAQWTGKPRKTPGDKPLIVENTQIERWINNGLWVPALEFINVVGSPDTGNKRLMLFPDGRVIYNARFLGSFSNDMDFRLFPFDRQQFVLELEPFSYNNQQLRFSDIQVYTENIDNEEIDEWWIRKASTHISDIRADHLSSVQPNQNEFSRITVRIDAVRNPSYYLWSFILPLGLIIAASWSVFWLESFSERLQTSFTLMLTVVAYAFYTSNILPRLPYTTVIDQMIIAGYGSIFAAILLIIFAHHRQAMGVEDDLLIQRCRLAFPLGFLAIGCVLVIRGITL
T4 sequence (P0C7B7 whole entry E131A): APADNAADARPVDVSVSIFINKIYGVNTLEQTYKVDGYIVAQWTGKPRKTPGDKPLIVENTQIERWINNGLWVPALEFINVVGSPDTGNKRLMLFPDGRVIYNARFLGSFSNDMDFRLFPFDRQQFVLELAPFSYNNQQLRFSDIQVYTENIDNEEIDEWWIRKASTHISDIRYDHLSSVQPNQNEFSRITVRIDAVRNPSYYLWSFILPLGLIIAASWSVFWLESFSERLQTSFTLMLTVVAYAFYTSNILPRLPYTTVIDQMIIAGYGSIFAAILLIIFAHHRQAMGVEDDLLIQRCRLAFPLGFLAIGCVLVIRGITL
T8 sequence (P0C7B7 whole entry E77A): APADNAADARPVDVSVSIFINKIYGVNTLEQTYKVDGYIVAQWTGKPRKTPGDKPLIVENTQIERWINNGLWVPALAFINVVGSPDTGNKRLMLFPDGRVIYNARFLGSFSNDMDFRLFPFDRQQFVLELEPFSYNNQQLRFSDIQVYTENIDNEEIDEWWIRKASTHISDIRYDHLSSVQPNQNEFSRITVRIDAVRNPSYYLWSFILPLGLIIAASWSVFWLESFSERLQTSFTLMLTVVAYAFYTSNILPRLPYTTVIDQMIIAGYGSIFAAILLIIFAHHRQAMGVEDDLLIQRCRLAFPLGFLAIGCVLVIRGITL

## NCCCCO
[1]; WT, pH 7.0
  n (Hill coefficient): 2.9
[1]; [15]
  EC50: 1700 µM
[1]; [16]
  activating current response of ELIC to the ligand: strong activation
[1]; [17]
  Imax/Imax cysteamine: 0.98±0.03

## NCCN
[1]; WT, pH 8.0
  n (Hill coefficient): 3.2
[1]; [18]
  EC50: 2000 µM
[1]; [16]
  activating current response of ELIC to the ligand: activate ELIC
[1]; ligand added to the extracellular solution, 10 mM, -60 mV, compared with 2 mM cysteamine, listed as aminoethane
  activating current response of ELIC to the ligand: already active at neutral conditions
[1]; [19]
  Imax/Imax cysteamine: 1.07±0.06

## CCN [Ethylamine]
[1]; [16]
  activating current response of ELIC to the ligand: activate the channel

## NCCCC(=O)O [GABA]
[1]; WT, pH 7.0
  n (Hill coefficient): 3.9
[1]; [15]
  EC50: 2400 µM
[1]; [16]
  activating current response of ELIC to the ligand: activating response at low mM concentrations
[1]; [17]
  Imax/Imax cysteamine: 0.79±0.09

## CC(=O)OCC[N+](C)(C)C [acetylcholine]
[1]; [16]
  activating current response of ELIC to the ligand: ineffective

## CCCN [aminopropane]
[1]; WT, pH 7.0
  n (Hill coefficient): 3.0
[1]; [15]
  EC50: 446 µM
[1]; [16]
  activating current response of ELIC to the ligand: activate the channel
[1]; [17]
  Imax/Imax cysteamine: 0.99±0.02

## NCCC(=O)O [beta-alanine]
[1]
  activating current response of ELIC to the ligand: absent

## NCCBr [bromoethylamine]
[1]; WT, pH 7.0
  n (Hill coefficient): 3.1
[1]; [15]
  EC50: 885 µM
[1]; [16]
  activating current response of ELIC to the ligand: opening the channel
[1]; [17]
  Imax/Imax cysteamine: 0.94±0.04

## NCCCBr [bromopropylamine]
[1]; WT, pH 7.0
  n (Hill coefficient): 3.9
[1]; [15]
  EC50: 1100 µM
[1]; [16]
  activating current response of ELIC to the ligand: opening the channel
[1]; [17]
  Imax/Imax cysteamine: 0.71±0.03

## CCCCN [butylamine]
[1]; [16]
  activating current response of ELIC to the ligand: weak

## NCCCCCN [cadaverine]
[1]; [16]
  activating current response of ELIC to the ligand: not

## NCCS [cysteamine]
[2]
  sulfhydryl groups protonated: > 96%
[3]
  EC50: > 10000 µM
[4]
  response to the addition of the ligand: no response
[5]
  response to the addition of the ligand: no response
[6]
  response to the addition of the ligand: no response
[7]
  response to the addition of the ligand: no response
[8]
  n (Hill coefficient): 3.0
[8]; read-out: EC50 of activation
  EC50: 2590 µM
[9]; 5 mM cysteamine
  τact, time constant of channel activation: 20 ± 5 ms
[9]; washout of 5 mM cysteamine
  τdeact, time constant of channel deactivation: 53 ± 7 ms
[10]
  response to the addition of the ligand: no response
[11]
  n (Hill coefficient): 2.6
  fold decrease of the EC50: 4 fold
  EC50: 87 µM
[1]; WT, pH 7.0
  n (Hill coefficient): 2.7
[1]; [15]
  EC50: 365 µM
[1]; WT, voltage-independent activation, read-out: EC50 of activation of ELIC
  EC50: 365 µM
[1]; [16]
  activating current response of ELIC to the ligand: most efficacious; also recorded: strongest response at low ligand concentration
[1]; [17]
  Imax/Imax cysteamine: 1
[12]
  n (Hill coefficient): 2.6
  EC50: 1900 µM
[13]
  response to the addition of the ligand: no response
[14]
  response to the addition of the ligand: did not show an activating response

## NCC(=O)O [glycine]
[1]
  activating current response of ELIC to the ligand: absent

## NCCCS [homocysteamine]
[1]; [16]
  activating current response of ELIC to the ligand: small

## CC(C)N [isopropylamine]
[1]; [16]
  activating current response of ELIC to the ligand: weak

## NCCCCN [putrescine]
[1]
  EC50: 16000 µM
  activating current response of ELIC to the ligand: activate ELIC; also recorded: only observed at higher pH
[1]; pH 8
  n (Hill coefficient): 2.4
  n (Hill coefficient), concentration of monovalent putrescine: 2.4
[1]; pH 9
  Imax/Imax cysteamine: 1.03±0.07

## aminopropanol
[11]
  n (Hill coefficient): 2.45
  fold decrease of the EC50: 2 fold
  EC50: 511 µM
[1]; WT, pH 7.0
  n (Hill coefficient): 3.2
[1]; [15]
  EC50: 1200 µM
[1]; [16]
  activating current response of ELIC to the ligand: strong activation
[1]; [17]
  Imax/Imax cysteamine: 1.00±0.014
[12]
  EC50: > 10000 µM

## diaminopropane
[1]; WT, pH 8.0
  n (Hill coefficient): 3.1
[1]; [18]
  EC50: 3000 µM
[1]; [19]
  Imax/Imax cysteamine: 1.08±0.03
